Laboratory results reported in paper PMC7464788, “Modification and Targeted Design of N-Terminal Truncates Derived from Brevinin with Improved Therapeutic Efficacy” (Biology, 2020).
Values after ≈ are worked out from the molar mass of the structure shown. Values joined by “and” are separate entries in the source; they are usually repeats but may differ in a detail not shown here. Identical values can stand only once. Positions of bridges follow the written chain, without caps; N, C: chain ends. Residues, ends and D or L forms follow the SMILES beside them.

Experiments:
horse erythrocytes = test: Haemolytic assay; type: cell-based; details: 2% (v/v) horse red blood cells, 37 °C, 2 h; 1% Triton-X 100 positive control; three times in five replicates
Description: The haemolytic assay was carried out to detect the cytotoxicity of each peptide to erythrocytes obtained from fresh defibrinated horse blood as described before. An appropriate volume of horse blood solution was collected via washing and transferring until the supernatant was clear. Then, 2% (v/v) suspension of red blood cells were incubated with peptide at 37 °C for 2 h. For positive and negative controls, the red blood cells were incubated with 1% (v/v) Triton-X 100 and Phosphate-buffered saline (PBS) solution, respectively. The 10% of maximal haemolysis concentration (HC10, μM) was utilised to assess the haemolytic potential. Experiments were repeated three times in five replicates.

[1] = system: methicillin-resistant S. aureus (MRSA) (NCTC12493); type: cell-based, Staphylococcus aureus
Description: (§1) The antimicrobial assay was carried out to detect the minimum inhibitory concentration (MIC) and the minimum bactericidal concentration (MBC) of each peptide on the microbes as described previously. Seven different microorganisms were used in the assay: Gram-positive bacteria Staphylococcus aureus (NCTC10788), Enterococcus faecalis (NCTC12697), and methicillin-resistant S. aureus (MRSA) (NCTC12493); Gram-negative bacteria Escherichia coli (NCTC10418), Pseudomonas aeruginosa (ATCC27853), and Klebsiella pneumoniae (ATCC 43816); and fungi Candida albicans (NCYC1467). Bacterial strains were inoculated and grown to mid-log phase in fresh Mueller Hinton broth (MHB) at 37 °C for overnight, then bacteria inoculum suspensions were subcultured until reaching the logarithmic growth phase by measuring OD of the cultures at wavelength 550 nm. Then, 99 µL bacteria and 1 µL peptide solution were mixed in the 96-wells microplate. For positive and negative controls, the bacteria were incubated with antibiotics (Norfloxacin for Gram-positive bacteria and Gram-negative bacteria; Amphotericin B for fungi) solution and MHB medium, respectively. Experiments were repeated five times in five replicates.

[2] = system: Klebsiella pneumoniae (ATCC 43816); type: cell-based
Description: as §1

[3] = system: Candida albicans (NCYC1467); type: cell-based
Description: as §1

[4] = system: Enterococcus faecalis (NCTC12697); type: cell-based
Description: as §1

[5] = system: Pseudomonas aeruginosa (ATCC27853); type: cell-based
Description: as §1

[6] = system: Escherichia coli (NCTC10418); type: cell-based
Description: as §1

[7] = system: Staphylococcus aureus (NCTC10788); type: cell-based
Description: as §1

| SMILES | HC10 (concentration causing 10% red cell lysis) (horse erythrocytes) | MBC MRSA [1] [µM] | MIC MRSA [1] [µM] | MBC K. pneumoniae [2] [µM] | MIC K. pneumoniae [2] [µM] | MBC C. albicans [3] [µM] | MIC C. albicans [3] [µM] | MBC E. faecalis [4] [µM] | MIC E. faecalis [4] [µM] | MBC P. aeruginosa [5] [µM] | MIC P. aeruginosa [5] [µM] | MBC E. coli [6] [µM] | MIC E. coli [6] [µM] | MBC S. aureus [7] [µM] |
| --- | --- | --- | --- | --- | --- | --- | --- | --- | --- | --- | --- | --- | --- | --- |
| CC[C@H](C)[C@@H]1NC(=O)[C@H](C)NC(=O)[C@@H](NC(=O)[C@H](Cc2ccccc2)NC(=O)[C@@H](NC(=O)[C@H](CCCCN)NC(=O)[C@@H]2CCCN2C(=O)[C@H](CC(C)C)NC(=O)[C@H](Cc2ccccc2)NC(=O)[C@@H](N)CCCCN)[C@@H](C)CC)CSSC[C@@H](C(=O)O)NC(=O)[C@H](CCCCN)NC(=O)[C@H](CCCCN)NC(=O)[C@H]([C@@H](C)O)NC1=O [KB2] (H-KFLPKIFCAITKKC-OH; disulfide 8-14) | 154 µM | 128 (≈ 210 µg/mL) | 16 (≈ 26.2 µg/mL) | 256 (≈ 419 µg/mL) | 256 (≈ 419 µg/mL) | 512 (≈ 839 µg/mL) | 128 (≈ 210 µg/mL) | > 512 | 512 (≈ 839 µg/mL) | > 512 | 512 (≈ 839 µg/mL) |  |  |  |
| CC[C@H](C)[C@@H]1NC(=O)[C@H](C)NC(=O)[C@@H](NC(=O)[C@H](Cc2ccccc2)NC(=O)[C@@H](NC(=O)[C@H](CCCCN)NC(=O)[C@@H]2CCCN2C(=O)[C@H](CC(C)C)NC(=O)[C@H](Cc2ccccc2)NC(=O)[C@H](CCCCN)NC(=O)[C@@H](N)CCCCN)[C@@H](C)CC)CSSC[C@@H](C(=O)O)NC(=O)[C@H](CCCCN)NC(=O)[C@H](CCCCN)NC(=O)[C@H]([C@@H](C)O)NC1=O [KKB2] (H-KKFLPKIFCAITKKC-OH; disulfide 9-15) | 207 µM | 64 (≈ 113 µg/mL) | 16 (≈ 28.3 µg/mL) | 256 (≈ 452 µg/mL) | 128 (≈ 226 µg/mL) | 64 (≈ 113 µg/mL) | 32 (≈ 56.5 µg/mL) | 512 (≈ 904 µg/mL) | 512 (≈ 904 µg/mL) | > 512 | 256 (≈ 452 µg/mL) | 32 (≈ 56.5 µg/mL) | 16 (≈ 28.3 µg/mL) | 64 (≈ 113 µg/mL) |
| CC[C@H](C)[C@@H]1NC(=O)[C@H](C)NC(=O)[C@@H](NC(=O)[C@H](Cc2ccccc2)NC(=O)[C@@H](NC(=O)[C@H](CCCCN)NC(=O)[C@H](Cc2c[nH]c3ccccc23)NC(=O)[C@@H]2CCCN2C(=O)[C@H](CC(C)C)NC(=O)[C@H](Cc2ccccc2)NC(=O)[C@H](CCCCN)NC(=O)[C@@H](N)CCCCN)[C@@H](C)CC)CSSC[C@@H](C(=O)O)NC(=O)[C@H](CCCCN)NC(=O)[C@H](CCCCN)NC(=O)[C@H]([C@@H](C)O)NC1=O [KKWB2] (H-KKFLPWKIFCAITKKC-OH; disulfide 10-16) | 140.04 µM | 32 (≈ 62.5 µg/mL) | 8 (≈ 15.6 µg/mL) | 32 (≈ 62.5 µg/mL) | 32 (≈ 62.5 µg/mL) | 32 (≈ 62.5 µg/mL) | 8 (≈ 15.6 µg/mL) | 512 (≈ 1000 µg/mL) | 256 (≈ 500 µg/mL) | 64 (≈ 125 µg/mL) | 64 (≈ 125 µg/mL) | 32 (≈ 62.5 µg/mL) | 16 (≈ 31.2 µg/mL) | 16 (≈ 31.2 µg/mL) |
| CC[C@H](C)[C@@H]1NC(=O)[C@H](C)NC(=O)[C@@H](NC(=O)[C@H](Cc2ccccc2)NC(=O)[C@@H](NC(=O)[C@H](CCCCN)NC(=O)[C@H](Cc2c[nH]c3ccccc23)NC(=O)[C@@H]2CCCN2C(=O)[C@H](CC(C)C)NC(=O)[C@H](Cc2ccccc2)NC(=O)[C@@H](N)CCCCN)[C@@H](C)CC)CSSC[C@@H](C(=O)O)NC(=O)[C@H](CCCCN)NC(=O)[C@H](CCCCN)NC(=O)[C@H]([C@@H](C)O)NC1=O [KWB2] (H-KFLPWKIFCAITKKC-OH; disulfide 9-15) | 99.81 µM | 64 (≈ 117 µg/mL) | 8 (≈ 14.6 µg/mL) | 128 (≈ 234 µg/mL) | 64 (≈ 117 µg/mL) | 64 (≈ 117 µg/mL) | 16 (≈ 29.2 µg/mL) | 512 (≈ 934 µg/mL) | 256 (≈ 467 µg/mL) | 256 (≈ 467 µg/mL) | 128 (≈ 234 µg/mL) | 32 (≈ 58.4 µg/mL) | 16 (≈ 29.2 µg/mL) | 32 (≈ 58.4 µg/mL) |
| CC[C@H](C)[C@@H]1NC(=O)[C@H](C)NC(=O)[C@@H](NC(=O)[C@H](Cc2ccccc2)NC(=O)[C@@H](NC(=O)[C@H](CCCCN)NC(=O)[C@H](Cc2c[nH]c3ccccc23)NC(=O)[C@@H]2CCCN2C(=O)[C@H](Cc2c[nH]c3ccccc23)NC(=O)[C@H](Cc2ccccc2)NC(=O)[C@@H](N)CCCCN)[C@@H](C)CC)CSSC[C@@H](C(=O)O)NC(=O)[C@H](CCCCN)NC(=O)[C@H](CCCCN)NC(=O)[C@H]([C@@H](C)O)NC1=O [KW^3,5B2] (H-KFWPWKIFCAITKKC-OH; disulfide 9-15) | 32.07 µM | 32 (≈ 60.7 µg/mL) | 8 (≈ 15.2 µg/mL) | 64 (≈ 121 µg/mL) | 32 (≈ 60.7 µg/mL) | 32 (≈ 60.7 µg/mL) | 8 (≈ 15.2 µg/mL) | 256 (≈ 486 µg/mL) | 256 (≈ 486 µg/mL) | 128 (≈ 243 µg/mL) | 64 (≈ 121 µg/mL) | 32 (≈ 60.7 µg/mL) | 16 (≈ 30.4 µg/mL) | 16 (≈ 30.4 µg/mL) |
| CC[C@H](C)[C@@H]1NC(=O)[C@H](C)NC(=O)[C@@H](NC(=O)[C@H](Cc2ccccc2)NC(=O)[C@H](Cc2c[nH]c3ccccc23)NC(=O)[C@H](CCCCN)NC(=O)[C@H](Cc2c[nH]c3ccccc23)NC(=O)[C@@H]2CCCN2C(=O)[C@H](CC(C)C)NC(=O)[C@H](Cc2ccccc2)NC(=O)[C@@H](N)CCCCN)CSSC[C@@H](C(=O)O)NC(=O)[C@H](CCCCN)NC(=O)[C@H](CCCCN)NC(=O)[C@H]([C@@H](C)O)NC1=O [KW^5,7B2] (H-KFLPWKWFCAITKKC-OH; disulfide 9-15) | 58.42 µM | 32 (≈ 60.7 µg/mL) | 8 (≈ 15.2 µg/mL) | 64 (≈ 121 µg/mL) | 32 (≈ 60.7 µg/mL) | 32 (≈ 60.7 µg/mL) | 16 (≈ 30.4 µg/mL) | 512 (≈ 971 µg/mL) | 256 (≈ 486 µg/mL) | 128 (≈ 243 µg/mL) | 64 (≈ 121 µg/mL) | 64 (≈ 121 µg/mL) | 16 (≈ 30.4 µg/mL) | 16 (≈ 30.4 µg/mL) |
| CC[C@H](C)[C@@H]1NC(=O)[C@H](C)NC(=O)[C@@H](NC(=O)[C@H](CCCCN)NC(=O)[C@H](C)NC(=O)[C@H](C)NC(=O)[C@H](CC(C)C)NC(=O)CNC(=O)[C@H](C)NC(=O)[C@@H](NC(=O)[C@H](CC(C)C)NC(=O)[C@@H]2CCCN2C(=O)[C@H](CC(C)C)NC(=O)[C@@H](N)Cc2ccccc2)[C@@H](C)CC)CSSC[C@@H](C(=O)O)NC(=O)[C@H](CCCCN)NC(=O)[C@H](CCCCN)NC(=O)[C@H]([C@@H](C)O)NC1=O [Peptide B1A1] (H-FLPLIAGLAAKCAITKKC-OH; disulfide 12-18) | could not be calculated and >512 µM | > 512 | > 512 | > 512 | > 512 | 512 (≈ 952 µg/mL) | 512 (≈ 952 µg/mL) | > 512 | > 512 | > 512 | > 512 | > 512 | 512 (≈ 952 µg/mL) | > 512 |
